Assay results taken from patent EP3653608A1, “ISOQUINOLINE BIARYL COMPOUNDS, A PHARMACEUTICAL COMPOSITION COMPRISING THE SAME, AND USES THEREOF” (Ludwig-Maximilians-Universität München, priority 2018, dated 2020).
“Also recorded” adds a separate entry of the source. Read-outs that look alike come from different tables or passages of the source.

How the values were obtained:
HL60 cell line = test: Antiproliferative MTT assay, HL60 cell line; format: cell-based; details: Homo sapiens, HL-60, 48 h incubation
HeLa cell line = test: Antiproliferative MTT assay, HeLa cell line; format: cell-based; details: Homo sapiens
[1] = human, 40 min, 2 uM
CYP2D6 = CYP2D6 (Homo sapiens, UniProt P10635); test: in vitro; details: probe fluorogenic CYP substrate (not named)
CYP2D6, sequence (P10635 whole entry): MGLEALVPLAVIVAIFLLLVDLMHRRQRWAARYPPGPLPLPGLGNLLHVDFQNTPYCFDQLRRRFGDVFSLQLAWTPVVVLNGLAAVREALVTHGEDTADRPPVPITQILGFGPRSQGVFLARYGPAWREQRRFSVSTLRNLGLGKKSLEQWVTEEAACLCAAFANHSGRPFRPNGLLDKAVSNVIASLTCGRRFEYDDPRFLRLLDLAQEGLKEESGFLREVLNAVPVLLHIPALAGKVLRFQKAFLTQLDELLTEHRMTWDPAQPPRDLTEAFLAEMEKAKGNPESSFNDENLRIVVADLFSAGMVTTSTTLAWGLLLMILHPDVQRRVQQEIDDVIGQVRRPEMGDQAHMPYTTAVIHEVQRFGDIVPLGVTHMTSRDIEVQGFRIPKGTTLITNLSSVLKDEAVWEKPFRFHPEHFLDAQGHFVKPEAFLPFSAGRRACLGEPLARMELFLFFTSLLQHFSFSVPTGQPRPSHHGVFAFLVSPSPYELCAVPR

CYP2C9 = CYP2C9 (Homo sapiens, UniProt P11712); test: in vitro; details: probe fluorogenic CYP substrate (not named)
CYP2C9, sequence (P11712 whole entry): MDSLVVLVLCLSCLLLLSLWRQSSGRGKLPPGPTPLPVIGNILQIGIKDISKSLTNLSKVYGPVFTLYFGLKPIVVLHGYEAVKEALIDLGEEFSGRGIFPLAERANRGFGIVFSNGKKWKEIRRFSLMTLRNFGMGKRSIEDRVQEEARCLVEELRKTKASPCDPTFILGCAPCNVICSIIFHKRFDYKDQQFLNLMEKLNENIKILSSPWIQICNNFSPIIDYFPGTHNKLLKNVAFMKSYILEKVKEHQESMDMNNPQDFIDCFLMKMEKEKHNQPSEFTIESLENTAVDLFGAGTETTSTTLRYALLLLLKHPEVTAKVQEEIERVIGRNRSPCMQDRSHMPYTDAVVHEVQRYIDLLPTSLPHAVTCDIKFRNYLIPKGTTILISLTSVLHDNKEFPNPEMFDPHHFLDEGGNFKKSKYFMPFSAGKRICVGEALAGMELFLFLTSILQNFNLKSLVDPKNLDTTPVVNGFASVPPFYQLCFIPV

CYP3A4 = CYP3A4 (Homo sapiens, UniProt P08684); test: in vitro; details: probe fluorogenic CYP substrate (not named)
CYP3A4, sequence (P08684 whole entry): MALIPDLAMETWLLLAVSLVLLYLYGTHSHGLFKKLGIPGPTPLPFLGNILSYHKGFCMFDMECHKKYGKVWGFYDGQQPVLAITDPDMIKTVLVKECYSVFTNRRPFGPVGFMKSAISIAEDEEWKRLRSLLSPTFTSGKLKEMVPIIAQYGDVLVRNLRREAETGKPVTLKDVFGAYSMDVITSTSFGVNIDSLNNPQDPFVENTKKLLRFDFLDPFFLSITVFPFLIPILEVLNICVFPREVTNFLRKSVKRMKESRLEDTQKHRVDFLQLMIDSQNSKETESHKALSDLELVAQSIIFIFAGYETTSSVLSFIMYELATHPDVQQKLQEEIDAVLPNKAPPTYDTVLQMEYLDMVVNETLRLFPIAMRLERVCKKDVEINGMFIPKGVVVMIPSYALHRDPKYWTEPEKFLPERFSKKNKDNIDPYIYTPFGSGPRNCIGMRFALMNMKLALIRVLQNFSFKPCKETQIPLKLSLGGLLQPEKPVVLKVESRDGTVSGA

physchem = details: pH 7.4
[2] = Metabolic stability in mouse liver microsomes; details: 2 uM, over 40 minutes, 37°C
CYP1A2 = molecular target: T1, CYP1A2 (Homo sapiens, UniProt P05177); test: Cytochrome P450 inhibition with fluorogenic substrate, CYP1A2; details: CYP1A2, 10 µM, 10 minute preincubation, 25 minute reaction
T1 sequence (P05177 1-516): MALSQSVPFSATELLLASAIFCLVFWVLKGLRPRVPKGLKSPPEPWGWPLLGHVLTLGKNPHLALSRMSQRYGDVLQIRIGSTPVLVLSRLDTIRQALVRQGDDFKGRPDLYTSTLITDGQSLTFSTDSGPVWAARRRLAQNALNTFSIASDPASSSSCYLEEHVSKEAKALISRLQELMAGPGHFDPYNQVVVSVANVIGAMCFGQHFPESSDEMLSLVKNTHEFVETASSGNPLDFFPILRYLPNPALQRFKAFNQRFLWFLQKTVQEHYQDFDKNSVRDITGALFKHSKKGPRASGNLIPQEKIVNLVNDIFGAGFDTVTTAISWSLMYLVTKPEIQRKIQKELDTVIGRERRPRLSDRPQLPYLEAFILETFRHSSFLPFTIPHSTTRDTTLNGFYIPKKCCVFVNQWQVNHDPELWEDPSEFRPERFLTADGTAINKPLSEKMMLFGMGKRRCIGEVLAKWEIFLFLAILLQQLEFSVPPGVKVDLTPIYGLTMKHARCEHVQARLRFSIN

CYP2C19 = CYP2C19 (Homo sapiens, UniProt P33261); test: Cytochrome P450 inhibition with fluorogenic substrate, CYP2C19; details: CYP2C19, 10 µM, 10 minute preincubation, 60 min reaction
CYP2C19, sequence (P33261 whole entry): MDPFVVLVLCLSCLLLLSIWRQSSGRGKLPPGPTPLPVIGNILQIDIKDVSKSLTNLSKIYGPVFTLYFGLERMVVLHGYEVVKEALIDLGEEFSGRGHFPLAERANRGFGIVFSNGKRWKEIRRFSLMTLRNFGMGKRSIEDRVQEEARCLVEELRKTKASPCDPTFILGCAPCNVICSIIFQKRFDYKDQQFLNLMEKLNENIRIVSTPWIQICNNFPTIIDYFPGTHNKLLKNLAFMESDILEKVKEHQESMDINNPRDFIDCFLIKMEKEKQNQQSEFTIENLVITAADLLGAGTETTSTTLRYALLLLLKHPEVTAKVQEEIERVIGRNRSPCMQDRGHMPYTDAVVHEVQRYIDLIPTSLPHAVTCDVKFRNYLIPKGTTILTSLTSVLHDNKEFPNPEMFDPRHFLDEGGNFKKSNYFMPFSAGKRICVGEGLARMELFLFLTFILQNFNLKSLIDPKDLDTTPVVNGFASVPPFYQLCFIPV

[3] = system: tubulin polymerisation dynamics; test: Inhibition of tubulin polymerisation dynamics in cellulo, confocal video microscopy of EB3-YFP comets; format: cell-based, human; details: 0.24 µM, live HeLa cells expressing EB3-YFP
Source text: In videos this marker manifests as bright well-defined moving "comets", and in still images as bright elongated streaks, when MTs are polymerising normally as in the control image (frame "ctrl"). […] "DMSO ctrl" denotes the cosolvent control for the A-3 images (i.e. 0.25% DMSO but no compound) while "PBS ctrl" denotes the control for the A-2 images (no compound or cosolvent applied); these controls show the expected structure of the microtubule network when no inhibition is applied.

microtubule network = test: Microtubule perturbation in cellulo, immunofluorescence staining of α-tubulin; format: cell-based, human; details: HeLa cells, 24 h incubation, A-2 in PBS, A-3 with 0.25% DMSO cosolvent
HeLa cells = test: Cell cycle analysis by flow cytometry, propidium iodide staining; format: cell-based, human; details: 24 h incubation, propidium iodide DNA staining, phosphate
Balb/c mice = test: Safe dosing parameters in vivo in mice

With `COc1cc2c(-c3cc(OC)c(OC)c(OC)c3)nccc2cc1O` [A-1, 7-methoxy-1-(3,4,5-trimethoxyphenyl)isoquinolin-6-ol] the IC50 (HL60 cell line) was 0.1 µM, the IC50 (HeLa cell line; HeLa cell line, MTT assay, 48 h incubation, read-out: IC50) was 0.24 µM and the degradation [1] was 31%. For the same molecule, the inhibition at 25 min, 10 µM (CYP2D6) was 13 to 19%, the inhibition at 25 min, 10 µM (CYP2C9) was 13 to 19% and the inhibition at 25 min, 10 µM (CYP3A4) was 13 to 19%. The logD (physchem) was 2.18, the degradation [2] was 33% and the inhibition (CYP1A2) was “zero”. The “apparent enhancement of activity” value (CYP2C19) was 50%.

For `COc1cc2c(-c3cc(OC)c(OC)c(OC)c3)nccc2cc1OP(=O)([O-])[O-].[Na+].[Na+]` [A-2, disodium 7-methoxy-1-(3,4,5-trimethoxyphenyl)isoquinolin-6-yl phosphate], the IC50 (HeLa cell line; HeLa, 48 h) was 0.13 µM, the “time until the comets stopped and vanished” value [3] was at most 0.5 min and the microtubule network perturbation (microtubule network; phosphate) was “pronounced disorganisation and destruction of the microtubule network”. For the same molecule, the cell cycle effect (HeLa cells) was “extensive cell cycle arrest leading to accumulation of cells in the G2/M phase; also recorded: dose-dependently causes accumulation of cells at the G2/M phase”, the tolerability (Balb/c mice; repeated dosage 25 mg/kg i.p., 3 administrations at 48-hour intervals, Balb/c mice) was “tolerated compound administration” and the tolerability (Balb/c mice; repeated dosage 25 mg/kg i.v., 3 administrations at 48-hour intervals, Balb/c mice) was “tolerated compound administration”. The tolerability (Balb/c mice; single dosage 31.5 mg/kg i.p., male and female Balb/c mice) was “tolerated by all mice tested” and the tolerability (Balb/c mice; single dosage 50 mg/kg i.v., male and female Balb/c mice) was “tolerated by all mice tested”.

In the case of `COc1ccc2ccnc(-c3cc(OC)c(OC)c(OC)c3)c2c1` [A-3, 7-methoxy-1-(3,4,5-trimethoxyphenyl)isoquinoline], the IC50 (HL60 cell line) is reported as 0.28 µM and the microtubule network perturbation (microtubule network) is reported as “pronounced disorganisation and destruction of the microtubule network”.

In the case of `Cn1c(=O)c2c(ncn2C)n(C)c1=O` [caffeine, reference compound], the degradation [1] is reported as under 10%.
